Measurements as given in patent publication US20250009830A1 (priority 2021, published 2025).
Like-named read-outs stand apart in the source and are kept apart here.

Legend:
Assay in all cases: microbe, parasite or virus in culture
Type in all cases: cell-based
Settings in all cases: read-out: IC50 of the main compounds of EC 3.2
[1] = system: SARS-CoV-2 Wuhan type (SARS-CoV-2PR-1)
SARS-CoV-2 Gamma = system: SARS-CoV-2 Gamma
SARS-CoV-2 Beta = system: SARS-CoV-2 Beta
SARS-CoV-2 Omicron = system: SARS-CoV-2 Omicron
SARS-CoV-2 Alpha = system: SARS-CoV-2 Alpha
SARS-CoV-2 Delta = system: SARS-CoV-2 Delta
[2] = Calu-3, calculated from EC 3.2 IC50 and HPLC analysis (Table 4)
[3] = Severe acute respiratory syndrome coronavirus 2, Calu-3, calculated from EC 3.2 IC50 and HPLC analysis (Table 4)

With OC[C@H]1O[C@@H](Oc2cc3c(O)cc(O)cc3[o+]c2-c2ccc(O)c(O)c2)[C@H](O[C@@H]2OC[C@@H](O)[C@H](O)[C@H]2O)[C@@H](O)[C@@H]1O [Cyanidin-3-sambubioside] the IC50 [1, 2] was 35 µM, the IC50 (SARS-CoV-2 Gamma; [2]) was 107 µM and the IC50 (SARS-CoV-2 Beta; [2]) was 107 µM. For the same molecule, the IC50 (SARS-CoV-2 Omicron; [2]) was 71 µM, the IC50 (SARS-CoV-2 Alpha; [2]) was 142 µM and the IC50 (SARS-CoV-2 Delta; [2]) was 71 µM.

O=c1c(O[C@@H]2O[C@H](CO)[C@@H](O)[C@H](O)[C@H]2O)c(-c2ccc(O)c(O)c2)oc2cc(O)cc(O)c12 [Isoquercitrin] gave an IC50 [1, 3] of 1.3 µM, an IC50 (SARS-CoV-2 Gamma; [3]) of 4 µM and an IC50 (SARS-CoV-2 Beta; [3]) of 4 µM. The IC50 (SARS-CoV-2 Omicron; [3]) was 2.7 µM, the IC50 (SARS-CoV-2 Alpha; [3]) was 5.4 µM and the IC50 (SARS-CoV-2 Delta; [3]) was 2.7 µM.

For C[C@@H]1O[C@@H](OC[C@H]2O[C@@H](Oc3c(-c4ccc(O)c(O)c4)oc4cc(O)cc(O)c4c3=O)[C@H](O)[C@@H](O)[C@@H]2O)[C@H](O)[C@H](O)[C@H]1O [Rutin], the IC50 [1, 3] was 17 µM, the IC50 (SARS-CoV-2 Gamma; [3]) was 51 µM and the IC50 (SARS-CoV-2 Beta; [3]) was 51 µM. For the same molecule, the IC50 (SARS-CoV-2 Omicron; [3]) was 34 µM, the IC50 (SARS-CoV-2 Alpha; [3]) was 68 µM and the IC50 (SARS-CoV-2 Delta; [3]) was 34 µM.

For OC[C@H]1O[C@@H](Oc2cc3c(O)cc(O)cc3[o+]c2-c2ccc(O)c(O)c2)[C@H](O)[C@@H](O)[C@@H]1O [Cyanidin-3-glucoside], the IC50 [1, 2] was 41 µM, the IC50 (SARS-CoV-2 Gamma; [2]) was 123 µM and the IC50 (SARS-CoV-2 Beta; [2]) was 123 µM. It also gave an IC50 (SARS-CoV-2 Omicron; [2]) of 82 µM, an IC50 (SARS-CoV-2 Alpha; [2]) of 165 µM and an IC50 (SARS-CoV-2 Delta; [2]) of 82 µM.

In the case of O=C(/C=C/c1ccc(O)c(O)c1)O[C@@H]1C[C@](O)(C(=O)O)C[C@@H](O)[C@H]1O [Chlorogenic acid], the IC50 [1, 3] is reported as 6.6 µM, the IC50 (SARS-CoV-2 Gamma; [3]) is reported as 20 µM and the IC50 (SARS-CoV-2 Beta; [3]) is reported as 20 µM. For the same molecule, the IC50 (SARS-CoV-2 Omicron; [3]) was 13 µM, the IC50 (SARS-CoV-2 Alpha; [3]) was 27 µM and the IC50 (SARS-CoV-2 Delta; [3]) was 13 µM.

OC[C@H]1O[C@@H](Oc2cc(O)cc3[o+]c(-c4ccc(O)c(O)c4)c(O[C@@H]4O[C@H](CO)[C@@H](O)[C@H](O)[C@H]4O[C@@H]4OC[C@@H](O)[C@H](O)[C@H]4O)cc23)[C@H](O)[C@@H](O)[C@@H]1O [Cyanidin-3-sambubioside-5-glucoside] was tested, and the IC50 [1, 2] was 6 µM, the IC50 (SARS-CoV-2 Gamma; [2]) was 18 µM and the IC50 (SARS-CoV-2 Beta; [2]) was 18 µM. It also gave an IC50 (SARS-CoV-2 Omicron; [2]) of 12 µM, an IC50 (SARS-CoV-2 Alpha; [2]) of 24 µM and an IC50 (SARS-CoV-2 Delta; [2]) of 12 µM.
